Results as given in US7465804B2, “Compounds, pharmaceutical compositions and methods for their use in treating metabolic disorders” (Amgen Inc., priority 2005, dated 2008).

Target: T1, human GPR40 (Homo sapiens, UniProt O14842)
T1 construct: host or cells: CHO cells
Assay: Cell based aequorin assay using human GPR40
Conditions: CHO cells stably transfected with GPR40 and aequorin; 0.01% HSA; aequorin luminescence; read-out: Relative EC50
Description: Cell-based aequorin assays were employed to characterize the modulatory activity of compounds on the GPR40 signaling pathway. In an exemplary assay, CHO cells were stably transfected with both GPR40 and Aequorin (Euroscreen). Cells were detached from the tissue culture dish with 2 mL of trypsin (0.25% (w/v)). Trypsinization was halted with 28 mL of Hanks Buffered Salt Solution containing 20 mM Hepes (H/HBSS) and 0.01% fatty acid-free human serum albumin (HSA). Coelantrazine was added to 1 ug/mL, and the cells were incubated for 2 hours at room temperature. Compounds were dissolved in DMSO for preparation of 10 mM stock solutions. Compounds were diluted in H/HBSS containing either 0.01% HSA. Serial dilutions of the test compounds were prepared to determine dose response.
Aequorin luminescence measurements were made using an EG&G Berthold 96-well luminometer, and the response was measured over a 20 second interval after cells and compounds were mixed. The maximum relative light units was plotted to determine dose response. The EC50 (effective concentration to reach 50% maximal response) was determined from the dose response plot.
Table 1 presents representative data (EC50 values) obtained for exemplary compounds of the invention for the relative activation of human GPR40. […]

T1 sequence (O14842 whole entry): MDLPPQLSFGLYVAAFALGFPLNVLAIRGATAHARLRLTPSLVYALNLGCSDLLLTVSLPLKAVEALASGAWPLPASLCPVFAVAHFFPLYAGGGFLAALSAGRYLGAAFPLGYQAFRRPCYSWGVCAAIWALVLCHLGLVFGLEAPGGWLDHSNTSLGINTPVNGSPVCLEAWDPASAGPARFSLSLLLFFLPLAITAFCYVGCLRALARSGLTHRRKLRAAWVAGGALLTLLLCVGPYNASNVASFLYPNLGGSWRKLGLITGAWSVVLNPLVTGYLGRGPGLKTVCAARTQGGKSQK

| EC50 [nM] | SMILES |
| --- | --- |
| 100 to 1000 | Cn1ccnc1C(CC(=O)O)c1ccc(OCc2cccc(-c3ccc(C(F)(F)F)cc3)c2)cc1 (centres unmarked) |
| 100 to 1000 | CCCCOc1ccc(C)cc1-c1ccc(COc2ccc([C@H](CC(=O)O)c3nccn3C)cc2)cc1 |
| 100 to 1000 | Cn1ccnc1C(CC(=O)O)c1ccc(OCc2cccc(Oc3ccccc3)c2)cc1 (centres unmarked) |
| 100 to 1000 | CCOc1cccc(-c2ccc(COc3ccc([C@H](CC(=O)O)c4nccn4C)cc3)cc2)c1 |
| 10 to 100 | Cc1c(Cl)cccc1-c1cccc(COc2ccc([C@H](CC(=O)O)c3nccn3C)cc2)c1 |
| 10 to 100 | Cc1ccc(Cl)cc1-c1cccc(COc2ccc([C@H](CC(=O)O)c3nccn3C)cc2)c1 |
| 10 to 100 | Cc1nc(-c2ccc(C(F)(F)F)cc2)sc1COc1ccc(C(CC(=O)O)c2ncco2)cc1 (centres unmarked) |
| 10 to 100 | Cc1cc(Cl)ccc1-c1cccc(COc2ccc([C@H](CC(=O)O)c3ncco3)cc2)c1 |
| 1000 to 10000 | Cc1cc(Cl)ccc1-c1cccc(COc2ccc([C@@H](CC(=O)O)c3ncco3)cc2)c1 |
| 10 to 100 | CCCCOc1ccc(C)cc1-c1ccc(COc2ccc([C@H](CC(=O)O)c3ncnn3C)cc2)cc1 |
| 100 to 1000 | Cc1nc(-c2ccc(C(F)(F)F)cc2)sc1COc1ccc([C@H](CC(=O)O)c2ncnn2C)cc1 |
| 10 to 100 | Cc1nc(-c2ccc(C(F)(F)F)cc2)sc1COc1ccc([C@H](CC(=O)O)c2nnnn2C)cc1 |
| < 10 | Cc1c(Cl)cccc1-c1cccc(COc2ccc([C@H](CC(=O)O)c3nnnn3C)cc2)c1 |
| 10 to 100 | Cc1ccc(Cl)cc1-c1cccc(COc2ccc([C@H](CC(=O)O)c3nnnn3C)cc2)c1 |
| 10 to 100 | Cc1cc(Cl)ccc1-c1cccc(COc2ccc([C@H](CC(=O)O)C(=O)N(C)C)cc2)c1 [Example 3, (S)-3-[4-(4′-chloro-2′-methyl-biphenyl-3-ylmethoxy)-phenyl]-N,N-dimethyl-succinamic acid] |
| 10 to 100 | Cc1ccc(-c2nc(C)c(COc3ccc([C@H](CC(=O)O)C(=O)N(C)C)cc3)s2)cc1 [Example 4, (S)-4-(dimethylamino)-3-(4-((4-methyl-2-p-tolylthiazol-5-yl)methoxy)phenyl)-4-oxobutanoic acid] |
| 10 to 100 | Cc1cc(Cl)ccc1-c1cccc(COc2ccc([C@H](CC(=O)O)c3ncnn3C)cc2)c1 [Example 6, (S)-3-[4-(4′-chloro-2′-methyl-biphenyl-3-ylmethoxy)-phenyl]-3-(2-methyl-2H-1,2,4-triazol-3-yl)-propionic acid] |
| 10 to 100 | Cn1nnnc1[C@@H](CC(=O)O)c1ccc(OCc2cccc(-c3ccc(C(F)(F)F)cc3)c2)cc1 [Example 7, (S)-3-(1-methyl-1H-tetrazol-5-yl)-3-[4-(4′-trifluoromethyl-biphenyl-3-ylmethoxy)-phenyl]-propionic acid] |

Further lines, the molecule ahead of its results:

| SMILES | EC50 [nM] |
| --- | --- |
| CCCCOc1ccc(C)cc1-c1ccc(COc2ccc([C@H](CC(=O)O)C(=O)N(C)C)cc2)cc1 | 10 to 100 |
| Cc1nc(-c2ccc(C(F)(F)F)cc2)sc1COc1ccc([C@H](CC(=O)O)C(=O)N(C)C)cc1 | 10 to 100 |
| Cc1nc(-c2ccc(C(F)(F)F)cc2)sc1COc1ccc([C@H](CC(=O)O)c2nccn2C)cc1 | 100 to 1000 |
| O=C(O)CC(c1ccc(OCc2cccc(-c3ccc(C(F)(F)F)cc3)c2)cc1)c1ncco1 (centres unmarked) | 10 to 100 |
| CCCCOc1ccc(C)cc1-c1ccc(COc2ccc(C(CC(=O)O)c3ncco3)cc2)cc1 (centres unmarked) | 10 to 100 |
| CCCCOc1ccc(C)cc1-c1ccc(COc2ccc([C@@H](CC(=O)O)c3ncco3)cc2)cc1 | 100 to 1000 |
| CCOc1cccc(-c2ccc(COc3ccc(C(CC(=O)O)c4ncco4)cc3)cc2)c1 (centres unmarked) | 1000 to 10000 |
| Cc1cc(Cl)ccc1-c1cccc(COc2ccc(C(CC(=O)O)c3ncco3)cc2)c1 (centres unmarked) | 100 to 1000 |
| O=C(O)CC(c1ccc(OCc2cccc(Oc3ccccc3)c2)cc1)c1ncco1 (centres unmarked) | 100 to 1000 |
| CCOc1cccc(-c2ccc(COc3ccc([C@H](CC(=O)O)c4ncnn4C)cc3)cc2)c1 | 100 to 1000 |
| CCCCOc1ccc(C)cc1-c1ccc(COc2ccc([C@H](CC(=O)O)c3nnnn3C)cc2)cc1 | 10 to 100 |
| Cn1ncnc1[C@@H](CC(=O)O)c1ccc(OCc2cccc(-c3ccc(C(F)(F)F)cc3)c2)cc1 [Example 5, (S)-3-(2-methyl-2H-1,2,4-triazol-3-yl)-3-[4-(4′-trifluoromethyl-biphenyl-3-ylmethoxy)-phenyl]-propionic acid] | 100 to 1000 |
| Cc1cc(Cl)ccc1-c1cccc(COc2ccc([C@H](CC(=O)O)c3nnnn3C)cc2)c1 [Example 8, (S)-3-[4-(4′-chloro-2′-methyl-biphenyl-3-ylmethoxy)-phenyl]-3-(1-methyl-1H-tetrazol-5-yl)-propionic acid] | 10 to 100 |
| Cc1cc(Cl)ccc1-c1cccc(COc2ccc([C@H](CC(=O)O)c3nccn3C)cc2)c1 [Example 9, (S)-3-[4-(4′-chloro-2′-methyl-biphenyl-3-ylmethoxy)-phenyl]-3-(1-methyl-1H-imidazol-2-yl)-propionic acid] | 10 to 100 |
| CCCCOc1ccc(C)cc1-c1ccc(COc2ccc([C@H](CC(=O)O)c3ncco3)cc2)cc1 [Example 10, (S)-3-[4-(5′-methyl-2′-butoxybiphenylmethoxy)phenyl]-3-(oxazol-2-yl)propanoic acid] | 10 to 100 |

Tested on: islet cells
Assay: Insulin secretion assay in human islet cells
Assay type: cell-based
Conditions: human islet cells from cadaveric donors; KRBH with 11.2 mM glucose; insulin by SPA; read-out: EC50, stimulation of insulin secretion from islet cells
Description: Human islets were isolated from cadaveric donors. Islets were treated with trypsin (0.25% (w/v) and cells were seeded in 96-well plates containing 3,000 cells per well. Cells were cultured in Roswell Park Memorial Institute (RMPI) media containing 10% fetal bovine serum.
For determination of insulin secretion, media was removed from islet cells and replaced with Krebs-Ringer bicarbonate buffer containing 10 mM HEPES (KRBH) and 2 mM glucose. After one hour incubation, media was replaced with KRBH conaining 11.2 mM glucose and test compounds. Insulin released into the medium from the islet cells was measured using scintillation proximity assay (SPA).

| EC50 [nM] | SMILES |
| --- | --- |
| < 1000 | Cc1ccc(-c2nc(C)c(COc3ccc([C@H](CC(=O)O)C(=O)N(C)C)cc3)s2)cc1 [Example 4, (S)-4-(dimethylamino)-3-(4-((4-methyl-2-p-tolylthiazol-5-yl)methoxy)phenyl)-4-oxobutanoic acid] |
| < 1000 | Cc1cc(Cl)ccc1-c1cccc(COc2ccc([C@H](CC(=O)O)c3nccn3C)cc2)c1 [Example 9, (S)-3-[4-(4′-chloro-2′-methyl-biphenyl-3-ylmethoxy)-phenyl]-3-(1-methyl-1H-imidazol-2-yl)-propionic acid] |
